Results published in patent US7183394B1, “Helical nucleopeptides” (priority 2000, dated 2007).

Experiments:
Type in all cases: binding
d(A3AGGAGA3) [1] = assay: Thermal UV denaturation (Tm), antiparallel target d(A3AGGAGA3); conditions: antiparallel N/3′; 5 μM each in TE buffer pH 7, incubated overnight at 4° C.
Protocol: (§1) The N-caps investigated consisted of a series of arenyl and aliphatic carboxylic acids. […] Thermal UV denaturation (Tm) data for the equilibria between N-cap-CTCCT and d(A3GAGGAA3) (SEQ. ID NO.: 5) (N/5′ or parallel orientation) and N-cap-CTCCT and d(A3AGGAGA3) (SEQ. ID NO.: 4) (N/3′ or antiparallel orientation) are collected in Table 2. Thermal UV denaturation curves were obtained with sample solutions made by combining the N-capped (αPNA and ssDNA components (5 μM each) in TE buffer (10 mM Tris-HCl, 1 mM EDTA, pH 7). These solutions were then incubated overnight at 4° C.

d(A3GAGGAA3) = assay: Thermal UV denaturation (Tm), parallel target d(A3GAGGAA3); conditions: for Tm (cooling) / Tm (heating): parallel N/5′, 5 μM each in TE buffer pH 7, incubated overnight at 4° C.
Protocol: as §1

d(TA3G5A3T) = assay: Thermal denaturation (Tm) of complex with d(TA3G5A3T); conditions: for Tm (cooling) / Tm (heating): Table 3, N-4-(cyclohexyl)butyryl cap
Protocol: The α-helical secondary structure (˜26%) of these backbone 1 αPNAs in the absence of DNA was confirmed by circular dichroism (CD) studies in H2O. Both the N-terminal linked (b1) and C-terminal-linked (b1′) cysteine dimers formed complexes with d(A10) in H2O (Table 1, entries 1 and 2). […] The homothymine b1αPNAs required a relatively long incubation period (up to 4 days at 4° C. until constant absorbance was reached) due to the slow kinetics of annealing.
(§2) (Cf. Corey, D. R. J. Am. Chem. Soc. 1995, 117, 9373–9374). […] Even the T5(b2) module hybridized with d(A10) (SEQ ID NO.: 2)—albeit weakly as expected for a complex held together by only A•T base pairs (entry 5). […] This implies that equilibration is being achieved during the cooling cycle. This Tm is 20° C. higher than that of C5(b1)•d(TA3G5A3T) in H2O (compare entries 6 and 7) and 35° C. higher than the corresponding DNA•DNA duplex (in TE-buffer+150 mM NaCl). […] (Marky, L. A.; Breslauer, K. J. Biopolymers 1987, 26, 1601–1620). Added salt was expected to disrupt favorable charge—charge interactions between cationic αPNAs and anionic DNA.
(§3) This reduction in melting temperature presumably arises from residual hydration of the mismatched nucleobases and provides additional support for our proposed Watson-Crick binding model.

d(A3GGAGGA3) [2] = assay: Thermal denaturation (Tm) of complex with d(A3GGAGGA3)
Protocol: as §2, §3

d(A3GGAGGA3) [3] = assay: CD titration (Job plot) with d(A3GGAGGA3); conditions: 258 nm, 5° C., total concentration 12 μM, water
Protocol: Spectra were recorded at 5° C. using a JASCO J-600 CD spectro-polarimeter. Samples having a total concentration ([αPNA]+[DNA]) of 12 μM were made up in doubly deionized water and placed in a stoppered optical quartz cell (1 cm pathlength). Dry air was purged through the sample compartment. Each data point represents the average of eight (baseline corrected) points. […] This is in line with the PAGE experiment with T5(b2)-dimer and d(C3T(TC2)2A10C(TC2)3) (SEQ. ID NO.: 6).

d(A3AGGAGA3) [4] = assay: Thermal UV denaturation (Tm), antiparallel target d(A3AGGAGA3); conditions: Table 1; antiparallel (N/3′) orientation
[5] = Table 3, N-4-(cyclohexyl)butyryl cap

Substance | Tm (heating) (d(A3AGGAGA3) [1]) [°C] | Tm (cooling) (d(A3GAGGAA3)) [°C] | Tm (heating) (d(A3GAGGAA3)) [°C] | other results
3-cyclopentylpropionyl-CTCCT [C5H9CH2CH2CO] | 33.8 | 38.2 | 43.7 | 
4-(1-pyrenyl)butyryl-CTCCT [1-pyrenyl(CH2)3CO] | 39.0 | 43.8 | 42.6 | 
4-(2-naphthyl)butyryl-CTCCT [2-naphthyl(CH2)3CO] | 36.3 | 40.0 | 42.7 | 
4-(p-methoxyphenyl)butyryl-CTCCT [p-MeOC6H4(CH2)3CO] | 34.2 | 37.0 | 41.3 | 
4-(p-nitrophenyl)butyryl-CTCCT [p-NO2C6H4(CH2)3CO] | 34.4 | 37.8 | 41.6 | 
4-cyclohexylbutyryl-CCCCC [C6H11(CH2)3CO-CCC CC] |  |  |  | Tm (cooling) (d(TA3G5A3T)): 66 °C; Tm (heating) (d(TA3G5A3T)): 65 °C; Tm (heating) (d(TA3G5A3T); listed as N-4-(cyclohexyl)butyryl-CCCCC): 64.9 °C
4-cyclohexylbutyryl-CCTCC [C6H11(CH2)3CO-CCT CC] |  |  |  | Tm (cooling) (d(TA3G5A3T)): 46 °C; Tm (heating) (d(TA3G5A3T)): 50 °C; lowering of Tm (cooling) by a single base-pair mismatch (d(TA3G5A3T); mismatched complex): 10 °C; lowering of Tm (heating) by a single base-pair mismatch (d(TA3G5A3T); mismatched complex): 15 °C; Tm (cooling) (d(A3GGAGGA3) [2]; [5]): 51 °C; Tm (heating) (d(A3GGAGGA3) [2]; [5]): 60 °C; Tm (heating) (d(A3GGAGGA3) [2]; Table 3, N-4-(cyclohexyl)butyryl cap, listed as N-4-(cyclohexyl)butyryl-CCTCC): 60.8 °C
4-cyclohexylbutyryl-CTCCT [C6H11CH2CH2CH2CO] | 33.4 | 43.7 | 47.9 | Tm increase compared to the parent N-acetylated αPNA (d(A3GAGGAA3); parallel, heating, cooling): 11–12 °C
4-phenylbutyryl-CTCCT [C6H5(CH2)3CO] | 33.6 | 38.5 | 41.8 | 
Ac-Cys^Acm-Lys-(Ser^C-Ala2-Lys)2-Ser^T-(Ala2-Lys-Ser^C)2-Gly-Lys-NH2 [CCTCC(b2)] |  |  |  | Tm (d(TA3G5A3T); TE-buffer): 38 °C; Tm (d(A3GGAGGA3) [2]; Table 1): 49 °C; Tm (d(A3GAGGAA3); Table 1, parallel (N/5′) orientation): 37 °C; CD intensity minimum (d(A3GGAGGA3) [3]): 50 mol % αPNA; Tm (d(A3AGGAGA3) [4]): 32 °C
n-butyryl-CTCCT [CH3CH2CH2CO] | 30.2 | 36.7 | 40.0 | 
n-hexanoyl-CTCCT [CH3CH2CH2CH2CH2CO] | 33.4 | 35.0 | 41.0 | 
